Consider ten molecules from ChEMBL document CHEMBL1201862, “PubChem BioAssay data set” (2004).

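Dose response: 5 concentrations. Exposure: 48 h. Format: 96-well plates. Endpoint: linear interpolation; highest concentration if not reached. GI50 = concentration required for 50% inhibition of growth.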 The source made the active and inactive calls. Rule as the data show it: active = GI50 up to about 1.1 µM and inactive = higher.

Among the test systems are DU-145; HOP-92; UACC-62; RPMI-8226; UACC-257; RXF 393; SW-620; HL-60; COLO 205; M14; SN12C; NCI-H460; UO-31; A498; HCC 2998; SF-268; OVCAR-4; SK-OV-3; OVCAR-3; MDA-MB-231.
Holding throughout (test): NCI anticancer screen, dose series, 48 h

Turning to `Nc1cc2c3c(cccc3c1)NC2=O`, the GI50 with DU-145 was > 100 µM (inactive); with HOP-92, > 100 µM (inactive); with UACC-62, 63 µM (inactive); with RPMI-8226 it was > 100 µM (inactive); with UACC-257 it was > 100 µM (inactive); in the assay on RXF 393, > 100 µM (inactive). Further, the GI50 with SW-620 is 82.4 µM (inactive); with HL-60, > 100 µM (inactive); in the assay on COLO 205, > 100 µM (inactive); in the assay with M14 it was 34.6 µM (inactive); in the assay on SN12C, 95.1 µM (inactive); with NCI-H460, 8.39 µM (inactive). Further, the GI50 is 21.2 µM (inactive) in the assay on UO-31; > 100 µM (inactive) in the assay on A498; > 100 µM (inactive) with HCC 2998; 11.2 µM (inactive) with SF-268; > 100 µM (inactive) with OVCAR-4; 94 µM (inactive) in the assay with SK-OV-3. In addition, the results for the GI50 in the assay with OVCAR-3 and with MDA-MB-231 were > 100 µM (inactive) and 70.3 µM (inactive), respectively.

With `CSc1s[s+]c(SC)c1-c1ccccc1`, the GI50 with DU-145 is 70.1 µM (inactive); in the assay on HOP-92, 13.2 µM (inactive); with UACC-62, 13.4 µM (inactive); in the assay on RPMI-8226 it was 19.8 µM (inactive); with UACC-257, 14.4 µM (inactive); in the assay with RXF 393, 16.3 µM (inactive). The GI50 in the assay on SW-620 was 16.4 µM (inactive); in the assay on HL-60, 28.9 µM (inactive); in the assay with COLO 205, 18.4 µM (inactive); with M14, 16.5 µM (inactive); with SN12C, 16.3 µM (inactive); in the assay on NCI-H460, 29.7 µM (inactive). Moreover, the GI50 in the assay on UO-31 was 18.4 µM (inactive); in the assay with A498, 19.8 µM (inactive); in the assay on HCC 2998, 5.62 µM (inactive); with SF-268, 18.2 µM (inactive); in the assay on OVCAR-4 it was 0.329 µM (active); in the assay on SK-OV-3, 15.9 µM (inactive). Also, the GI50 with OVCAR-3 was 15 µM (inactive); in the assay with MDA-MB-231, 12.2 µM (inactive).

For the molecule `CCC1(OC(=O)CN2CCN(CCO)CC2)C(=O)OCc2c1cc1n(c2=O)Cc2cc3ccccc3nc2-1` (stereo not given), the GI50 in the assay with DU-145 was 0.0822 µM (active); in the assay with HOP-92, 1.26 µM (inactive); in the assay with UACC-62, 0.0759 µM (active); in the assay with RPMI-8226, 0.962 µM (active); with UACC-257 it was 0.771 µM (active); in the assay on RXF 393, 0.593 µM (active). Also, the GI50 was 0.0991 µM (active) with SW-620; 0.286 µM (active) in the assay with HL-60; 2.04 µM (inactive) with COLO 205; 0.265 µM (active) with M14; 0.125 µM (active) in the assay with SN12C; 0.0614 µM (active) in the assay with NCI-H460. Moreover, the GI50 in the assay with UO-31 is 0.169 µM (active); in the assay with A498, 0.514 µM (active); in the assay on HCC 2998, 0.45 µM (active); in the assay on SF-268, 0.138 µM (active); with OVCAR-4, 1.77 µM (inactive); in the assay with SK-OV-3 it was 1.17 µM (inactive). Moreover, the results for the GI50 with OVCAR-3 and with MDA-MB-231 were 1.96 µM (inactive) and 14.1 µM (inactive), respectively.

Turning to `CCOC(=O)c1nc2c3c(ncn2n1)Oc1c(c(-c2ccccc2)nn1-c1ccccc1)C3c1ccc(Cl)cc1` (stereo not given), the GI50 in the assay on DU-145, in the assay on HOP-92, with UACC-62, in the assay on RPMI-8226, with UACC-257 and in the assay on RXF 393 was > 100 µM (inactive) in each case. Also, the GI50 in the assay on SW-620, with HL-60, in the assay on COLO 205, in the assay with M14, in the assay with SN12C and in the assay with NCI-H460 was > 100 µM (inactive) throughout. Also, the GI50 with UO-31, in the assay on A498, with HCC 2998, in the assay on SF-268, in the assay with OVCAR-4 and in the assay on SK-OV-3 was > 100 µM (inactive) in each case. Moreover, the GI50 in the assay with OVCAR-3 and in the assay on MDA-MB-231 was > 100 µM (inactive) each time.

On to `COc1cc(O)c(C(=O)/C=C/c2ccccc2)c(OC)c1` [FLAVOKAWAIN B], for which the GI50 in the assay with DU-145 was 7.73 µM (inactive); with HOP-92, 3.72 µM (inactive); in the assay on UACC-62, 4.14 µM (inactive); with RPMI-8226, 3.85 µM (inactive); in the assay with UACC-257 it was 10.8 µM (inactive); in the assay on RXF 393, 12.5 µM (inactive). Moreover, the GI50 in the assay with SW-620 was 3.85 µM (inactive); with HL-60, 1.21 µM (inactive); with COLO 205 it was 14.5 µM (inactive); in the assay with M14, 7.94 µM (inactive); in the assay with SN12C, 3.29 µM (inactive); with NCI-H460, 3.54 µM (inactive). Also, the GI50 with UO-31 is 5.83 µM (inactive); with A498, 4.43 µM (inactive); in the assay with HCC 2998 it was 2.97 µM (inactive); with SF-268, 4.98 µM (inactive); in the assay with OVCAR-4 it was 8 µM (inactive); with SK-OV-3 it was 11.6 µM (inactive). Besides, the GI50 was 7.1 µM (inactive) in the assay with OVCAR-3 and 7.64 µM (inactive) in the assay on MDA-MB-231.

For `CCOC1OC(C)(C=C(C#N)C#N)CCC1C` (stereo not given), the GI50 was 39.2 µM (inactive) in the assay with DU-145; 48.5 µM (inactive) in the assay on HOP-92; 38 µM (inactive) in the assay with UACC-62; 21 µM (inactive) with RPMI-8226; > 71.6 µM (inactive) in the assay with UACC-257; 53.6 µM (inactive) with RXF 393. The GI50 was 37.2 µM (inactive) in the assay on SW-620; 26.9 µM (inactive) in the assay on HL-60; 36.8 µM (inactive) with COLO 205; 35.5 µM (inactive) in the assay on M14; 33.7 µM (inactive) in the assay on SN12C; 34.2 µM (inactive) in the assay with NCI-H460. Also, the GI50 in the assay on UO-31 was 33.8 µM (inactive); in the assay on A498, 22.4 µM (inactive); with HCC 2998, 32.1 µM (inactive); with SF-268 it was 43.2 µM (inactive); with OVCAR-4, 49.3 µM (inactive); in the assay on SK-OV-3, > 100 µM (inactive). For the same molecule, the GI50 in the assay on OVCAR-3 was 24.5 µM (inactive); in the assay with MDA-MB-231 it was 88.1 µM (inactive).

Regarding `COC12c3ccccc3-c3ccccc3C1[C@@H](C(=O)O)[C@H]2C(=O)O` (stereo not given in full), the GI50 in the assay with DU-145, with HOP-92, with RPMI-8226, with UACC-257, with RXF 393 and with SW-620 was > 10 µM (inactive) each time. Also, the GI50 with HL-60, in the assay on COLO 205, in the assay with M14, in the assay with SN12C, in the assay with NCI-H460 and in the assay on UO-31 was > 10 µM (inactive) in each case. The GI50 with A498, in the assay with HCC 2998, in the assay with SF-268, with OVCAR-4, in the assay with SK-OV-3 and in the assay on OVCAR-3 was > 10 µM (inactive) each time. Moreover, the GI50 in the assay on MDA-MB-231 was > 10 µM (inactive).

With `Nc1cnc2c(c1)c(=O)nc1n2CCS1`, the GI50 in the assay with DU-145 is > 100 µM (inactive); with HOP-92, > 100 µM (inactive); in the assay on UACC-62, > 100 µM (inactive); with RPMI-8226, 74 µM (inactive); in the assay with UACC-257, > 100 µM (inactive); with RXF 393, > 100 µM (inactive). The GI50 was > 100 µM (inactive) with SW-620; > 100 µM (inactive) with HL-60; > 100 µM (inactive) in the assay on COLO 205; > 100 µM (inactive) in the assay on SN12C; > 100 µM (inactive) in the assay on NCI-H460; 64 µM (inactive) with UO-31. Further, the GI50 in the assay on A498, with HCC 2998, with SF-268, with OVCAR-4, in the assay with SK-OV-3 and in the assay on OVCAR-3 was > 100 µM (inactive) throughout. The GI50 in the assay on MDA-MB-231 is 80 µM (inactive).

Take `N#CCCC(CC#N)N1CCN(CCO)CC1` (stereo not given): the GI50 with DU-145, in the assay with HOP-92, in the assay with UACC-62, with RPMI-8226, in the assay with UACC-257 and with RXF 393 was > 100 µM (inactive) each time. The GI50 with SW-620, with HL-60, in the assay on COLO 205, in the assay on M14, with SN12C and in the assay on NCI-H460 was > 100 µM (inactive) each time. Further, the GI50 with UO-31, in the assay with A498, in the assay on HCC 2998, with SF-268, in the assay on OVCAR-4 and in the assay on SK-OV-3 was > 100 µM (inactive) each time. Moreover, the GI50 in the assay on MDA-MB-231 was > 100 µM (inactive).

For `CCCC1C(CC)C(NC)C(C#N)(C#N)C1(C#N)C#N` (stereo not given), the GI50 with DU-145 is 14.2 µM (inactive); in the assay with HOP-92 it was 14 µM (inactive); in the assay on UACC-62, 17.5 µM (inactive); in the assay with RPMI-8226 it was 17.1 µM (inactive); in the assay with UACC-257, 16.7 µM (inactive); in the assay with RXF 393 it was 13.1 µM (inactive). Further, the GI50 in the assay on SW-620 is 36.8 µM (inactive); in the assay with HL-60 it was 20.4 µM (inactive); in the assay on COLO 205 it was 12.8 µM (inactive); with M14, 35.6 µM (inactive); in the assay on SN12C, 15.1 µM (inactive); in the assay on UO-31, 14.6 µM (inactive). The GI50 is 15.6 µM (inactive) in the assay with A498; 18 µM (inactive) in the assay on HCC 2998; 16.5 µM (inactive) in the assay on SF-268; 28.2 µM (inactive) in the assay on OVCAR-4; > 100 µM (inactive) in the assay on SK-OV-3; 15.2 µM (inactive) in the assay on MDA-MB-231.
